The source of these data is patent publication US20040214833A1, “Tricyclic heteroaromatic compounds” (Boehringer Ingelheim International GmbH, priority 2003, published 2004).

For the experiment, the target named is T1, N-type calcium channel (Homo sapiens, UniProt Q00975).
T1 construct: expressed in transfected cells; host or cells: HEK 293
Nature of the experiment: Patch-Clamp blockade of voltage-dependent N-type calcium channels in recombinant HEK 293 cells. It is filed as cell-based. An excerpt: The antinociceptive activity of the compounds of this invention is based on a blockade of the voltage-dependent N-type calcium channels. This inhibiting activity is detected electrophysiologically by the Patch-Clamp technique (cf: Improved patch-clamp techniques for high resolution current recording from cells and cell-free membrane patches; Hamill et al.; Pflügers Archiv, 391, 1981, 85-100) on recombinant HEK 293 cells which express the N-type calcium channel.
A general note: In patch-clamp work, channel activity is measured electrically.

The mark [1] stands for this setting: Patch-Clamp technique, recombinant HEK 293 cells which express the N-type calcium channel, read-out: IC50 values.
Setting [2] is: N-type calcium channel, Patch-Clamp, HEK 293 cells, read-out: IC50 value.

Each structure is given as a SMILES string. Read-outs that look alike come from different tables or passages of the source.

T1 sequence (Q00975 whole entry): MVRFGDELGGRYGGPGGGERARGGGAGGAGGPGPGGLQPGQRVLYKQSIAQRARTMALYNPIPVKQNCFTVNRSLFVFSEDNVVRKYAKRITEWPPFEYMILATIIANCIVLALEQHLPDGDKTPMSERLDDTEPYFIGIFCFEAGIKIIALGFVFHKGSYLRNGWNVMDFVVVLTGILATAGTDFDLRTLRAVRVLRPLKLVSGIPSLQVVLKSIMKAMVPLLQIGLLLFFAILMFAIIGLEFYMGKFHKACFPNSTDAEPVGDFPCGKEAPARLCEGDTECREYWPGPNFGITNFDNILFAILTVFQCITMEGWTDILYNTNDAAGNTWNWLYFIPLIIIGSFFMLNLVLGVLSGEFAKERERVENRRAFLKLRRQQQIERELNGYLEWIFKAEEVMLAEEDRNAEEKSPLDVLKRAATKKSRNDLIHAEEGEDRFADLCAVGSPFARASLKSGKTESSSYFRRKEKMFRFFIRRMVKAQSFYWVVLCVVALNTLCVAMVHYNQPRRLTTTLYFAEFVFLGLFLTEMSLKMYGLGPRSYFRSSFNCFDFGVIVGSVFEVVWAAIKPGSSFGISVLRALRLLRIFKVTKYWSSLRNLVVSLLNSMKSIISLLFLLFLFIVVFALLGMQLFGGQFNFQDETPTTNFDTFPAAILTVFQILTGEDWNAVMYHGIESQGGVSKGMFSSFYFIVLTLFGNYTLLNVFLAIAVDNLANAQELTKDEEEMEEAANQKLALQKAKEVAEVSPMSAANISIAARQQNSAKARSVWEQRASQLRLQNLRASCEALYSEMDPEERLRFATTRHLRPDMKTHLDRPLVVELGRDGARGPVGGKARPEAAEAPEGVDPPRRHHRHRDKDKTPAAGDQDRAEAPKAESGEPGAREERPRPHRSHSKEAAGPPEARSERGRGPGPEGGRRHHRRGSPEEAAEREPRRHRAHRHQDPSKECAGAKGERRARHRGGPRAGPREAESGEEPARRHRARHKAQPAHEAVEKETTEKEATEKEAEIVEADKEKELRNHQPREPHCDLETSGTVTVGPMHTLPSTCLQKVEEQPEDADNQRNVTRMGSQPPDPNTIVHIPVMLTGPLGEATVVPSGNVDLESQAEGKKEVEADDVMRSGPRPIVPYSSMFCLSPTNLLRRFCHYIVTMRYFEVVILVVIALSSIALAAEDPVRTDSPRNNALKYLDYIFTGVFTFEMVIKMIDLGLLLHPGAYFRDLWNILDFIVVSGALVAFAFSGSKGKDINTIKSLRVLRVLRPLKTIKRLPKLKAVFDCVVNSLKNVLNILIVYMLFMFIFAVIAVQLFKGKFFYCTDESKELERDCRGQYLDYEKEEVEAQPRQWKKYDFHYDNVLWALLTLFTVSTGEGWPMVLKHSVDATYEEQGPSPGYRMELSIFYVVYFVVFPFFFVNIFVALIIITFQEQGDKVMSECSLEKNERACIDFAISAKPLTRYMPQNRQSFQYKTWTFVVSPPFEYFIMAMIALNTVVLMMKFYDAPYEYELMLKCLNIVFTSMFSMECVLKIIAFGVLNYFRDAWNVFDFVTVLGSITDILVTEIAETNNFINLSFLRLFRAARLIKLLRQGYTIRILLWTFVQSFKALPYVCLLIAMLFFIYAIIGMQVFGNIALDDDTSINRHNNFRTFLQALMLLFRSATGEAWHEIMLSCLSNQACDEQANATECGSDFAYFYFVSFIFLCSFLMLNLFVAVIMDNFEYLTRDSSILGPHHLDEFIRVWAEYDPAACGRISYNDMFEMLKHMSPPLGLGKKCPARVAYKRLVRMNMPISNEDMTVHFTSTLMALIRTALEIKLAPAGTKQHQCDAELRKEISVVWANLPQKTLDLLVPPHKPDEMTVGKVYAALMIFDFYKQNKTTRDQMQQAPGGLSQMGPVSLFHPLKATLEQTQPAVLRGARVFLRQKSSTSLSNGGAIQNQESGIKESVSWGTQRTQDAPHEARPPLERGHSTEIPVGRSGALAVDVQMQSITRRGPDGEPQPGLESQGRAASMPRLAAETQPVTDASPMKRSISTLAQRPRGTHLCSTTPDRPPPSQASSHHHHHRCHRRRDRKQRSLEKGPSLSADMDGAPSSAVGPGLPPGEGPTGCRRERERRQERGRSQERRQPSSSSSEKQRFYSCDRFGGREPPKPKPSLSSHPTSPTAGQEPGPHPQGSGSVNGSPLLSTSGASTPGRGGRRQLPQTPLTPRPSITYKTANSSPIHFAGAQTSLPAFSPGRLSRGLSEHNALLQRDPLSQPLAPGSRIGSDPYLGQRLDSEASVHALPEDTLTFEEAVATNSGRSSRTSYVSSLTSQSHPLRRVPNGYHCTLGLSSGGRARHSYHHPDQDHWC
T1 sequence (P54289 25-956 partner limits assumed): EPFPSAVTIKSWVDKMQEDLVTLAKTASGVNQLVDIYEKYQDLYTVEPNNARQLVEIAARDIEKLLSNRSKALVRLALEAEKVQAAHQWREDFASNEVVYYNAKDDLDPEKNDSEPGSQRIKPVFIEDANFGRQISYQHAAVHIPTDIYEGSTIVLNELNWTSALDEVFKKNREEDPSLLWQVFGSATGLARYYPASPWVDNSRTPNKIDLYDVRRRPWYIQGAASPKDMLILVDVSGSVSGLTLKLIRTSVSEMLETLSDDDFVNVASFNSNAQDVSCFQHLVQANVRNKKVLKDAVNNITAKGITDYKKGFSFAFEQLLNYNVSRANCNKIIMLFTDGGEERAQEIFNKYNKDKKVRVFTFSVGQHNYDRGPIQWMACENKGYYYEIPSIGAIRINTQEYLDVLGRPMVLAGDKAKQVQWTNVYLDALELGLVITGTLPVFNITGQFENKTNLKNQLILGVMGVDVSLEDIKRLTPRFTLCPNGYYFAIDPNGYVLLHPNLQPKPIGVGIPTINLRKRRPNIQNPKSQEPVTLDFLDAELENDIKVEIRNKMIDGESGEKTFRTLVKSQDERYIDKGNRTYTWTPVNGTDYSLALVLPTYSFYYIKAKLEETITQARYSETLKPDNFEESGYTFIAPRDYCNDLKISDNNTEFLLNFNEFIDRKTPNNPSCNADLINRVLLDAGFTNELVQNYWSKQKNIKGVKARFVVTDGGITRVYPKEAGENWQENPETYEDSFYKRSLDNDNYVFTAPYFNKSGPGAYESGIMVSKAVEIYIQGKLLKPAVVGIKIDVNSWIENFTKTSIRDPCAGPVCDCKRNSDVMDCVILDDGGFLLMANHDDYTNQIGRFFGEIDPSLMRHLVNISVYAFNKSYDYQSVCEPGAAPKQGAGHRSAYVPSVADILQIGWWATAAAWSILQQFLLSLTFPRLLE
T1 sequence (P54289 957-1103 partner limits assumed): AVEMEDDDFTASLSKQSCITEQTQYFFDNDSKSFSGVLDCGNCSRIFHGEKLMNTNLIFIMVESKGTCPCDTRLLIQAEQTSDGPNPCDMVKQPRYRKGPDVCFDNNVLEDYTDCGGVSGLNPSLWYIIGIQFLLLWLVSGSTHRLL
T1 sequence (P54284 whole entry partner): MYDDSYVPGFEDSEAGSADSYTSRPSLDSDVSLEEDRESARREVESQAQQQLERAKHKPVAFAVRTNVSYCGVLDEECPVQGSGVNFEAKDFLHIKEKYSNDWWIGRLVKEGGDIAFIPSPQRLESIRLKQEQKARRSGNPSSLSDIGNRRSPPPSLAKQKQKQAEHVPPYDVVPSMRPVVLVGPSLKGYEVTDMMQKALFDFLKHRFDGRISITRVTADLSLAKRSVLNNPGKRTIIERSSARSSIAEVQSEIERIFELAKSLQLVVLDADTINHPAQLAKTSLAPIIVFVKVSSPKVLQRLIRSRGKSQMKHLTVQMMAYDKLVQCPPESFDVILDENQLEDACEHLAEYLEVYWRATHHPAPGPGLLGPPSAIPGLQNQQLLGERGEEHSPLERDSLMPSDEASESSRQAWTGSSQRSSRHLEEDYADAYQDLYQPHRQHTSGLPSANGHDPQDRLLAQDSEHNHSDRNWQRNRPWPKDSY

As a reminder, the IC50 is the concentration needed to halve the response being measured. On to `Cc1nc2c(ccc3nc(-c4cccc(F)c4)cc(N(C)C)c32)s1` [Example 4, 9-dimethylamino-7-(3-fluorophenyl)-2-methyl-thiazolo[4,5-f]quinoline], for which the IC50 under setting [1] came out at 3.6 µM.
As to `CNc1cc(-c2cccc(F)c2)nc2ccc3c(ncn3C)c12` [Example 2, 7-(3-fluorophenyl)-3-methyl-9-methylamino-3H-imidazo [4,5-f]quinoline], under setting [2], the IC50 came to 15.2 µM.
On to `CN(C)c1cc(-c2cccc(F)c2)nc2ccc3c(ncn3C)c12` [Example 3, 9-dimethylamino-7-(3-fluorophenyl)-3-methyl-3H-imidazo [4,5-f]quinoline], for which the IC50 value entry (N-type calcium channel, Patch-Clamp, HEK 293 cells) is “biphasic”.
As to `CNc1cc(-c2cccc(F)c2)nc2ccc3sc(C)nc3c12` [Example 6, 7-(3-fluorophenyl)-2-methyl-9-methylamino thiazolo[4,5-f]quinoline], under setting [1], the IC50 was 2 µM.
For `CNc1cc(-c2ccncc2)nc2ccc3c(ncn3C)c12` [Example 1, 3-methyl-9-methylamino-7-(pyridin-4-yl)-3H-imidazo[4,5-f]quinoline], the concentration for half-maximal inhibition (IC50) under setting [2] was determined as 9.9 µM.
On the same count and under the same terms, then `CN(C)c1cc(-c2cccc(F)c2)nc2ccc3ncsc3c12` [Example 5, 9-dimethylamino-7-(3-fluorophenyl)-thiazolo[5,4-f]quinoline], with 14.3 µM.
